Our source for the GI50 and TGI values is PubChem BioAssay (NCI).

Among the test systems are SK-MEL-5 melanoma; SF-268 CNS; HCC-2998 colon; SK-MEL-2 melanoma; OVCAR-3 ovarian; HCT-15 colon; A549 NSCLC; HS 578T breast; PC-3 prostate; HL-60(TB) leukemia.
Experiment in all cases: inhibition of tumour cell growth, NCI panel, 48 h

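Following 48 hours of exposure in 96-well plates, responses at five concentrations were used to interpolate endpoints linearly. GI50 marks 50% less growth. TGI denotes the concentration required for complete inhibition of growth.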

Regarding `COc1cc2c3c(n(CCNCCCNCCn4c5c(c6cc(OC)c(OC)cc6c4=O)C(=O)c4ccccc4-5)c(=O)c2cc1OC)-c1ccccc1C3=O`, the GI50 with SK-MEL-5 melanoma was 4.93 µM; in the assay with SF-268 CNS it was 0.0648 µM; in the assay on HCC-2998 colon, 0.0685 µM; with SK-MEL-2 melanoma, 1.04 µM; in the assay with OVCAR-3 ovarian, 0.149 µM; in the assay with HCT-15 colon it was 54.2 µM. In addition, the GI50 in the assay on A549 NSCLC was 0.187 µM; in the assay on HS 578T breast, above 49 µM; in the assay on PC-3 prostate, 0.0865 µM; with HL-60(TB) leukemia, below 0.0154 µM. The TGI in the assay on SK-MEL-5 melanoma was 22.5 µM; with HCC-2998 colon, 0.978 µM; in the assay on SK-MEL-2 melanoma, 15.2 µM; in the assay with OVCAR-3 ovarian it was 1.17 µM; with HCT-15 colon, above 100 µM; with A549 NSCLC, 24.2 µM. Also, the TGI in the assay on HS 578T breast is above 100 µM; in the assay with PC-3 prostate, 2.09 µM; in the assay with HL-60(TB) leukemia, 0.334 µM.
On to `COC(=O)[C@H](Cc1c[nH]c2ccccc12)NC(=O)[C@@H](OC)[C@@H]1Cc2cc3cc(OC4CC(OC5CC(O)C(O)C(C)O5)C(O)C(C)O4)c(C)c(O)c3c(O)c2C(=O)[C@H]1OC1CC(OC2CC(OC3CC(C)(O)C(O)C(C)O3)C(O)C(C)O2)C(O)C(C)O1` (stereo partly specified), for which the GI50 in the assay with SK-MEL-5 melanoma was 0.00621 µM; with SF-268 CNS, 0.00891 µM; in the assay with HCC-2998 colon, 0.00659 µM; with SK-MEL-2 melanoma it was 0.0049 µM; with OVCAR-3 ovarian, 0.00701 µM; in the assay with HCT-15 colon, 0.441 µM. Besides, the GI50 in the assay on A549 NSCLC was 0.00873 µM; in the assay with HS 578T breast it was 0.00566 µM; in the assay on PC-3 prostate, 0.0088 µM; with HL-60(TB) leukemia, 0.0119 µM. In addition, the TGI in the assay with SK-MEL-5 melanoma is 0.0308 µM; in the assay on SF-268 CNS, 1.78 µM; with HCC-2998 colon, 0.0382 µM; in the assay on SK-MEL-2 melanoma, 0.0145 µM; in the assay on OVCAR-3 ovarian, 0.112 µM; in the assay with HCT-15 colon, above 16.5 µM. The TGI in the assay on A549 NSCLC was above 16.5 µM; in the assay with HS 578T breast, 0.157 µM; in the assay with PC-3 prostate, 0.412 µM; with HL-60(TB) leukemia, 0.386 µM.
Turning to `CC[CH2][Sn]([Cl])([Cl])[CH2]CC.Oc1ccccc1C=NCCN=Cc1ccccc1O`, the GI50 in the assay with SK-MEL-5 melanoma was 4.87 µM; with SF-268 CNS it was 3.63 µM; in the assay on HCC-2998 colon it was 11.1 µM; in the assay on OVCAR-3 ovarian it was 9.29 µM; in the assay on HCT-15 colon, 9.63 µM; in the assay on A549 NSCLC it was 19.2 µM. The GI50 in the assay on HS 578T breast is 2.33 µM; in the assay with PC-3 prostate, 6.28 µM. In addition, the TGI is 17.5 µM in the assay with SK-MEL-5 melanoma; 15.5 µM in the assay with SF-268 CNS; 23.8 µM in the assay with HCC-2998 colon; 21.4 µM in the assay with OVCAR-3 ovarian; 24.8 µM with HCT-15 colon; 41 µM in the assay on A549 NSCLC. The TGI with HS 578T breast came to 9.09 µM; in the assay on PC-3 prostate, 22.7 µM.
As for `Cc1nc(-c2ccccc2)c(-c2ccccc2)s1`, the TGI in the assay with SK-MEL-5 melanoma was 27.5 µM; in the assay on SF-268 CNS it was 78.6 µM; with HCC-2998 colon it was 25.3 µM; with SK-MEL-2 melanoma, 32.8 µM; with OVCAR-3 ovarian, 87.4 µM; in the assay on HCT-15 colon, 39 µM. Besides, the TGI came to 89 µM in the assay with A549 NSCLC, 47.2 µM in the assay with HS 578T breast, 47.1 µM with PC-3 prostate and 28.5 µM in the assay with HL-60(TB) leukemia.
On to `C=C1C(=O)O[C@H]2[C@H]1CC/C(COC(=O)c1cc3ccccc3s1)=C\CC[C@@]1(C)O[C@@H]21`, for which the GI50 in the assay on SK-MEL-5 melanoma is 1.75 µM; in the assay with SF-268 CNS, 1.54 µM; in the assay on HCC-2998 colon, 1.75 µM; with SK-MEL-2 melanoma, 1.75 µM; in the assay with OVCAR-3 ovarian, 0.446 µM; in the assay with HCT-15 colon it was 0.4 µM. In addition, the GI50 was 2.04 µM with A549 NSCLC, 2.89 µM in the assay with HS 578T breast, 1.83 µM in the assay on PC-3 prostate and 1.89 µM in the assay with HL-60(TB) leukemia. Moreover, the TGI in the assay on SK-MEL-5 melanoma came to 3.21 µM; with SF-268 CNS it was 3.24 µM; in the assay on HCC-2998 colon, 3.23 µM; in the assay on SK-MEL-2 melanoma, 3.52 µM; with OVCAR-3 ovarian, 1.66 µM; in the assay on HCT-15 colon, 1.79 µM. For the same molecule, the TGI came out at 4.4 µM in the assay on A549 NSCLC, 8.52 µM with HS 578T breast, 3.59 µM in the assay with PC-3 prostate and 5.53 µM with HL-60(TB) leukemia.
`O=c1[nH]c(=O)n(C2OC(CO)C(O)C(O)C2O)cc1F` (stereo unspecified): the TGI in the assay with SK-MEL-5 melanoma, in the assay with SF-268 CNS, in the assay on HCC-2998 colon, in the assay with SK-MEL-2 melanoma, in the assay on OVCAR-3 ovarian and in the assay on HCT-15 colon was above 100 µM throughout. Besides, the TGI is above 100 µM in the assay on A549 NSCLC, above 100 µM in the assay on HS 578T breast, above 100 µM with PC-3 prostate and above 74.5 µM in the assay on HL-60(TB) leukemia.
For the molecule `Cc1ccc2[nH]c(C(=O)NN3C(=O)C(C)SC34CCCC(C)C4)c(-c3ccccc3)c2c1` (stereo unspecified), the GI50 is above 100 µM in the assay on SK-MEL-5 melanoma; 64.8 µM with SF-268 CNS; 76.6 µM with HCC-2998 colon; above 100 µM in the assay on SK-MEL-2 melanoma; 97.3 µM in the assay on OVCAR-3 ovarian; 87 µM in the assay on HCT-15 colon. For the same molecule, the GI50 in the assay with A549 NSCLC was 30.9 µM; in the assay with HS 578T breast, 87.8 µM; in the assay with PC-3 prostate, 55.1 µM. Besides, the TGI with SK-MEL-5 melanoma, in the assay with SF-268 CNS, with HCC-2998 colon, with SK-MEL-2 melanoma, in the assay with OVCAR-3 ovarian and in the assay on HCT-15 colon was above 100 µM each time. In addition, the TGI in the assay with A549 NSCLC, with HS 578T breast and in the assay on PC-3 prostate was above 100 µM throughout.
`Cn1c2ccccc2c2c3[nH]c(=O)[nH]c(=O)c3c3c4ccccc4n(C)c3c21`: the GI50 was 3.12 µM in the assay on SF-268 CNS; 8.25 µM in the assay on HCC-2998 colon; 4.5 µM in the assay on SK-MEL-2 melanoma; 2.38 µM with OVCAR-3 ovarian; 1.62 µM in the assay on HCT-15 colon; 2.86 µM in the assay on A549 NSCLC. Moreover, the GI50 in the assay on HS 578T breast was 2.44 µM; in the assay with PC-3 prostate, 30.1 µM; with HL-60(TB) leukemia, above 100 µM. Moreover, the TGI in the assay on SF-268 CNS was 15.6 µM; with HCC-2998 colon it was above 100 µM; with SK-MEL-2 melanoma it was 19.7 µM; with OVCAR-3 ovarian it was 7 µM; with HCT-15 colon it was above 100 µM; in the assay with A549 NSCLC, above 100 µM. Also, the TGI with HS 578T breast was 8.21 µM; in the assay on PC-3 prostate, above 100 µM; with HL-60(TB) leukemia it was above 100 µM.
